The values that follow come from ChEMBL document CHEMBL4825753 (J Med Chem, 2021).

The target of data set [1] is T1, Receptor-type tyrosine-protein kinase FLT3 (Homo sapiens, UniProt P36888).
T1 sequence (P36888 whole entry): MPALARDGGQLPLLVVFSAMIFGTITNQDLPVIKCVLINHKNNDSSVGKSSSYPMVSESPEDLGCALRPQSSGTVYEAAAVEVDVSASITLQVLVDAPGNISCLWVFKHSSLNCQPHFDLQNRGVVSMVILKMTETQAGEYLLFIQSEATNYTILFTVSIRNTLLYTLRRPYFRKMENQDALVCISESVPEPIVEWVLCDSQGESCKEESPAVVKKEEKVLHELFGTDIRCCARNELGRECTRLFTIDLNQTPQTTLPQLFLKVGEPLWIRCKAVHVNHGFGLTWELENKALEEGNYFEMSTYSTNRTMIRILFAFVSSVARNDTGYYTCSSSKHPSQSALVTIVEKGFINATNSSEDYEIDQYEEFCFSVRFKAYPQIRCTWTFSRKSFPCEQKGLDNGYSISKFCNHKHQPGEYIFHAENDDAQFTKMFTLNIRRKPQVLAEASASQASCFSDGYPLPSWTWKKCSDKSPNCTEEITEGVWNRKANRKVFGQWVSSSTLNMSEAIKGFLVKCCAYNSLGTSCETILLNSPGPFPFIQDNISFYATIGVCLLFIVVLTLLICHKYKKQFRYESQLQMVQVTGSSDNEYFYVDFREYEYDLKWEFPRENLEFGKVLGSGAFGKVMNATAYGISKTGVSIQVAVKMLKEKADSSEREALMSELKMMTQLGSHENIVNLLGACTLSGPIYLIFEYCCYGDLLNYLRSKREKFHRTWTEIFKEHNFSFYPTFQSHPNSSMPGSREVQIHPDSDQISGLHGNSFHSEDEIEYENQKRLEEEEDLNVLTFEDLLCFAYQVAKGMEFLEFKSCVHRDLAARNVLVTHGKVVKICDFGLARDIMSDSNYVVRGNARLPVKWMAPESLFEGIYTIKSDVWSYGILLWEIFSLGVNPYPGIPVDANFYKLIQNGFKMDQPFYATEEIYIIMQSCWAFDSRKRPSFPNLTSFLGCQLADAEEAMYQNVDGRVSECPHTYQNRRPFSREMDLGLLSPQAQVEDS
The data set is described as follows: Inhibition of FLAG-tagged FLT3 (unknown origin) transfected in Cos-7 cells assessed as phosphorylation level incubated for 1 hr by ELISA. In kind it is cell-based. A general note: ELISA stands for enzyme-linked immunosorbent assay.

Data set [2] is described as follows: Lipophilicity, log D of the compound at pH 7.4. The data set is classed as physicochemical. As to conditions: buffer.
Data set [3] deals with BaF3. The data set is described as follows: Growth inhibition of mouse BaF3 cells transfected with MER assessed as inhibition of cell growth incubated for 72 hrs by Cell-titer-Glo assay. The data set is classed as functional.
Data set [4] concerns BaF3. The data set is described as follows: Growth inhibition of mouse BaF3 cells transfected with AXL assessed as inhibition of cell growth incubated for 72 hrs by Cell-titer-Glo assay. The data set is classed as functional.
The test system of data set [5] is BaF3. Put plainly: Growth inhibition of mouse BaF3 cells transfected with FLT3 assessed as inhibition of cell growth incubated for 72 hrs by Cell-titer-Glo assay. The data set is classed as functional.
For data set [6], the system named is BaF3. Put plainly: Growth inhibition of mouse BaF3 cells transfected with Tyro3 assessed as inhibition of cell growth incubated for 72 hrs by Cell-titer-Glo assay. In kind it is functional.
Data set [7] concerns BaF3. Put plainly: Growth inhibition of mouse BaF3 cells assessed as inhibition of cell growth incubated for 72 hrs by Cell-titer-Glo assay. In kind it is functional.
For data set [8], the system named is BaF3. Put plainly: Antitumour activity against mouse BaF3 cells transfected with MER implanted in C57BL/6J mouse assessed as reduction in tumour growth at 3 to 100 mg/kg, po bid for 6 days. In kind it is functional, organism-based. The settings on record: dose 3-100 mg/kg, time 6.0 day.
For data set [9], the system named is BaF3. Put plainly: Antitumour activity against mouse BaF3 cells transfected with AXL implanted in C57BL/6J mouse assessed as reduction in tumour growth at 100 mg/kg, po bid for 6 days. The settings on record: time 6.0 day. The data set is classed as functional, organism-based.
The nature of data set [10]: Fraction unbound in C57BL/6J mouse implanted with mouse BaF3 cells transfected with MER in at 3 to 100 mg/kg, po bid for 6 days. The data set is classed as ADME, organism-based. The settings on record: in vivo, dose 3-100 mg/kg, time 6 day.
A short description of data set [11]: Fraction unbound in C57BL/6J mouse implanted with mouse BaF3 cells transfected with AXL in at 3 to 100 mg/kg, po bid for 6 days. The settings on record: in vivo, dose 3-100 mg/kg, time 6 day. In kind it is ADME, organism-based.
For data set [12], the system named is BaF3. Put plainly: Antitumour activity against mouse BaF3 cells transfected with MER implanted in C57BL/6J mouse assessed as reduction in MER phosphorylation at 30 to 100 mg/kg, po bid for 6 days by western blot analysis. In kind it is functional, organism-based. The settings on record: dose 30-100 mg/kg, time 6.0 day. On the technique in general: In western blotting, separated proteins are transferred to a membrane and probed.

For data set [13], the system named is BaF3. Put plainly: Antitumour activity against mouse BaF3 cells transfected with AXL implanted in C57BL/6J mouse assessed as reduction in AXL phosphorylation at 30 to 100 mg/kg, po bid for 6 days western blot analysis. In kind it is functional, organism-based. The settings on record: dose 30-100 mg/kg, time 6.0 day.
The subject of the next data set is MC-38. Put plainly: Antitumour activity against mouse MC38 cells implanted in C57BL6 mouse assessed as increase in survival at 100 mg/kg, po bid for 2 weeks co-treatment with anti-PD1 further treated with ionizing radiation. In kind it is functional, organism-based.
Data set [14] deals with T2, Tyrosine-protein kinase receptor UFO (Homo sapiens, UniProt P30530).
T2 sequence (P30530 whole entry): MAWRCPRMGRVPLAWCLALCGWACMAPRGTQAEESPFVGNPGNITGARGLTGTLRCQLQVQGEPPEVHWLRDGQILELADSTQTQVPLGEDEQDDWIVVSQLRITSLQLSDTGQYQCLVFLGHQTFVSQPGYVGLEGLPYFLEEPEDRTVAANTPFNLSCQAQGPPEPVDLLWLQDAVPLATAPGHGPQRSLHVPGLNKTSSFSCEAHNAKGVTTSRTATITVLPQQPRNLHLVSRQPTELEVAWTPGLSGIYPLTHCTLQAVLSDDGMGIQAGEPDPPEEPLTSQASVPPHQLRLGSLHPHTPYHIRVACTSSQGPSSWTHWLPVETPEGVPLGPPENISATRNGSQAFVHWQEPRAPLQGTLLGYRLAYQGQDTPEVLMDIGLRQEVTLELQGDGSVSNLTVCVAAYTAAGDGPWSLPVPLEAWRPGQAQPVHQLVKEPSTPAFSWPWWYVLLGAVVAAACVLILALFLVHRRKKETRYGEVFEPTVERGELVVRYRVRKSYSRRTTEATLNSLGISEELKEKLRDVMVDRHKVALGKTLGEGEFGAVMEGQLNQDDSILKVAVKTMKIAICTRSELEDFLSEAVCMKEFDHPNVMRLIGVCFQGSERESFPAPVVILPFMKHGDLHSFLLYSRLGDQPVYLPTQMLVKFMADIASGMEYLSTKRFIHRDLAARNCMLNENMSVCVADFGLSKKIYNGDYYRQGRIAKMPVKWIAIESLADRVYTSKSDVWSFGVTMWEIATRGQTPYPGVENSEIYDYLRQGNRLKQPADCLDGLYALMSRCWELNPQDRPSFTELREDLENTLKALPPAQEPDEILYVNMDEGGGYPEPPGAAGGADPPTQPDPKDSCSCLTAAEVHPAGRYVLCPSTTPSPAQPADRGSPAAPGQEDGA
Put plainly: Inhibition of FLAG-tagged AXL (unknown origin) transfected in Cos-7 cells assessed as phosphorylation level incubated for 1 hr by ELISA. In kind it is cell-based.

Data set [15] deals with T3, Tyrosine-protein kinase receptor TYRO3 (Homo sapiens, UniProt Q06418).
T3 sequence (Q06418 whole entry): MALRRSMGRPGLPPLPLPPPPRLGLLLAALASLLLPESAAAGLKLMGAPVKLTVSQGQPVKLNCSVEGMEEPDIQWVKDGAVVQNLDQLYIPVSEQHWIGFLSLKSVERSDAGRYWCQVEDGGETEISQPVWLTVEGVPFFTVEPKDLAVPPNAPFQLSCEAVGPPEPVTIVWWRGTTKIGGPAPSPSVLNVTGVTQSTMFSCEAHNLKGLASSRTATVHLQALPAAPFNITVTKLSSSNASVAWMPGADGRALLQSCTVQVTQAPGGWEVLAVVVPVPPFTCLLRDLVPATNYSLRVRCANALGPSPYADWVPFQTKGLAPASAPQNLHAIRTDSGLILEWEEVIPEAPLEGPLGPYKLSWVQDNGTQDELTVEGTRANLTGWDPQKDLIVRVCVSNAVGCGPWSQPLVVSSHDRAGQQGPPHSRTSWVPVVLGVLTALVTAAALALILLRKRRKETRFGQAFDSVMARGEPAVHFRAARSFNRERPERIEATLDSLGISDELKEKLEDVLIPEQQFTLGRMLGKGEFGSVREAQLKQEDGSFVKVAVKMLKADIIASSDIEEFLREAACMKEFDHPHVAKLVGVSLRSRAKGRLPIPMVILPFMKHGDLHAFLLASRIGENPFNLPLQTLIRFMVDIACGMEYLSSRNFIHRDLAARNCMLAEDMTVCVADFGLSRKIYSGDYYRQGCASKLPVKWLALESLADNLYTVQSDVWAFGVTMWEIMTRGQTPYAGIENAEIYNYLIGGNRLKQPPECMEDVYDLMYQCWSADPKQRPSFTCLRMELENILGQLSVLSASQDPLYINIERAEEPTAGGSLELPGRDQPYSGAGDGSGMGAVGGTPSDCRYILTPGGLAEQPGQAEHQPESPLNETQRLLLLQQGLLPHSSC
Put plainly: Inhibition of FLAG-tagged Tyro3 (unknown origin) transfected in Cos-7 cells assessed as phosphorylation level incubated for 1 hr by ELISA. The data set is classed as cell-based.

Data set [16] can be described thus: Photostability of compound assessed as half life. The data set is classed as physicochemical.
Data set [17] is described as follows: Induction efferocytosis in human PBMC assessed as CD14-positive monocytes.

Active and inactive are the calls of the source.

Usually IC50 stands for the concentration needed to halve the response being measured. Usually logD stands for the decadic logarithm of the distribution of all forms, ionised or not, between an organic phase and buffer at a given pH. High values mean higher lipophilicity, low ones lower lipophilicity. As usually defined, the GI50 is the concentration that inhibits growth by half. A word on the fraction unbound: it is free concentration divided by total concentration. Low values mean extensive binding, high ones weak binding. On to `CN1CCN(Cc2ccc(-c3ccc(CO[C@H]4CCC[C@@H]4NC(=O)c4cc(-c5cnn(C)c5)cnc4N)cc3)cc2)CC1`, for which, in data set [1], the IC50 was 10 µM. Further, in data set [2], the logD was found to be 2.8. For the same molecule, the GI50 in the data set on BaF3 [3] is 0.00794 µM; with BaF3 [4], 0.0501 µM; with BaF3 [5] it was 5.01 µM; in the data set on BaF3 [6] it was 3.16 µM; with BaF3 [7], 12.6 µM. Besides, the result in the data set on BaF3 [8], with BaF3 [9], in the data set with BaF3 [12], with BaF3 [13] and with MC-38 was Active. The fraction unbound at 144 h in [10] and in data set [11] was 0.14 each time.
By half-life is commonly meant the time needed for the level to fall by half in the phase considered. The term pIC50 denotes the IC50 on a negative log10 scale, so that one unit is a factor of ten. On to `Cc1cc(-c2c(C)nn(C)c2C)ccc1-c1nnc(N(C)Cc2ccc3ncc(C(=O)N(C)C)n3c2)o1`, for which the IC50 in [14] was 0.398 µM; in data set [1] it was 10 µM; in data set [15], 25.1 µM. This molecule also gave a logD in [2] of 3.3. Moreover, in data set [16], the half-life is 17.8 days. Moreover, in [17], the pIC50 is listed as 7.1.
